Reference: US10350210B2, “EGFR and ALK dual inhibitor” (PRECEDO PHARMACEUTICALS CO., LTD, priority 2015, dated 2019)

Columns and labels:
NCI-H1975 = assay: Growth of cancer cells (Cell Titer-Glo viability), NCI-H1975; type: cell-based; conditions: Homo sapiens; NCI-H1975 (EGFR L858R/T790M double mutant), 72 hrs
Excerpt: (§1) By testing the effect of the novel kinase inhibitors on the proliferation of cancer cells, the selectivity of the compounds of the present disclosure in inhibiting the proliferation of cancer cells was further assessed. In this example, human non-small cell lung cancer cell NCI-H1975 (expressing EGFR L858R/T790M double mutant gene), human skin squamous carcinoma cell A431 (expressing wild-type EGFR gene), non-small cell lung cancer NCI-H3255 (expressing EGFR L858R mutant gene), non-small cell lung cancer cell NCI-H3122 (expressing ALK gene), human non-small cell lung cancer cell A549 (expressing wild-type EGFR gene), human non-small cell lung cancer cell NCI-H2122 (expressing wild-type EGFR gene), human non-small cell lung cancer cell NCI-H460 (expressing wild-type EGFR gene), human non-small cell lung cancer cell PC-9 (expressing EGFR delE746_A750 mutant gene), Chinese hamster ovary cell CHO (Cricetulus griseus, hamster, Chinese, ovary), Chinese hamster lung cell CHL, human non-small cell lung cancer cell HCC827 (expressing mutant EGFR del19 gene), human lung adenocarcinoma cell HCC4006 (expressing mutant EGFR del19 gene), human non-small cell lung cancer cell NCI-H2228 (expressing wild-type ALK gene), and mouse primary B cell BaF3 were used, and the above cells were all purchased from ATCC (US). In addition, mouse BaF3-TEL-ALK (stably expressing ALK kinase), mouse BaF3-ALK-F1174L (stably expressing mutant ALK F1174L kinase), mouse BaF3-NPM-ALK (stably expressing ALK kinase), mouse BaF3-TEL-EGFR (stably expressing EGFR kinase), mouse BaF3-TEL-EGFR-T790M (stably expressing EGFR T790M mutant kinase), mouse BaF3-FL-EGFR-Del19 (stably expressing EGFR delE746_A750 mutant kinase), mouse BaF3-TEL-EGFR-L858R (stably expressing EGFR L858R mutant kinase), mouse BaF3-FL-EGFR-T790M-L858R (stably expressing EGFR T790M/L858R mutant kinase), mouse BaF3-TEL-INSR (stably expressing INSR protein), mouse BaF3-TEL-IGF1R (stably expressing IGF1R Protein), mouse BaF3-EML4-ALK (stably expressing EML4-ALK Protein), mouse BaF3-TEL-JAK3 (stably expressing JAK3 kinase protein), mouse BaF3-TEL-CSF1R (stably expressing CSF1R protein), and mouse BaF3-TEL-ALK-F1196M (stably expressing ALK F1196M mutant kinase) were also used in this example. The above cell lines were all established by our laboratory via the following process: kinase proteins or protein domain sequences of human ALK, ALK F1174L, EGFR, EGFR T790M, EGFR delE746_A750, EGFR L858, EGFR T790M/L858R, INSR, IGF1R, EML4-ALK, JAK3, CSF1R, ALK F1196M were amplified respectively by PCR, and were respectively inserted into MSCV-Puro vector (Clontech) with N-terminal TEL fragments and/or NPM fragments and/or TPR fragments; the resultants were stably transfected into mouse BaF3 cells by the means of retrovirus, and the IL-3 growth factors were removed, and eventually the ALK, ALK F1174L, EGFR, EGFR T790M, EGFR delE746_A750, EGFR L858, EGFR T790M/L858R, INSR, IGF1R, EML4-ALK, JAK3, CSF1R, ALK F1196M-transferred protein dependent cell lines were obtained.
(§2) The number of viable cells was determined quantitatively by a microplate reader using Cell Titer-Glo® (Promega, US) chemiluminescence cell viability assay kit.

PC-9 = assay: Growth of cancer cells (Cell Titer-Glo viability), PC-9; type: cell-based; conditions: Homo sapiens; PC-9 (EGFR delE746_A750 mutant), 72 hrs
Excerpt: as §1, §2

A549 = assay: Growth of cancer cells (Cell Titer-Glo viability), A549; type: cell-based; conditions: Homo sapiens; A549 (wild-type EGFR), 72 hrs
Excerpt: as §1, §2

HCC827 = assay: Growth of cancer cells (Cell Titer-Glo viability), HCC827; type: cell-based; conditions: Homo sapiens; HCC827 (mutant EGFR del19), 72 hrs
Excerpt: as §1, §2

NCI-H3122 = assay: Growth of cancer cells (Cell Titer-Glo viability), NCI-H3122; type: cell-based; conditions: Homo sapiens; NCI-H3122 (expressing ALK gene), 72 hrs; read-out: GI50
Excerpt: as §1, §2

BaF3 = assay: Cell growth (Cell Titer-Glo viability), BaF3; type: cell-based; conditions: BaF3 mouse primary B cell, 72 hrs
Excerpt: as §1, §2

BaF3-TEL-ALK = assay: Cell growth (Cell Titer-Glo viability), BaF3-TEL-ALK; type: cell-based; conditions: Mus musculus; BaF3-TEL-ALK (stably expressing ALK kinase), 72 hrs
Excerpt: as §1, §2

BaF3-TEL-EGFR-T790M = assay: Cell growth (Cell Titer-Glo viability), BaF3-TEL-EGFR-T790M; type: cell-based; conditions: Mus musculus; BaF3-TEL-EGFR-T790M (EGFR T790M mutant kinase), 72 hrs
Excerpt: as §1, §2

BaF3-TEL-INSR = assay: Cell growth (Cell Titer-Glo viability), BaF3-TEL-INSR; type: cell-based; conditions: Mus musculus; BaF3-TEL-INSR (stably expressing INSR protein), 72 hrs
Excerpt: as §1, §2

BaF3-TEL-IGF1R = assay: Cell growth (Cell Titer-Glo viability), BaF3-TEL-IGF1R; type: cell-based; conditions: Mus musculus; BaF3-TEL-IGF1R (stably expressing IGF1R protein), 72 hrs
Excerpt: as §1, with “The above cell lines were all established by our laboratory via the following process: kinase proteins or protein domain sequences of human ALK, ALK F1174L, EGFR, EGFR T790M, EGFR delE746_A750, EGFR L858, EGFR T790M/L858R, INSR, IGF1R, EML4-ALK, JAK3, CSF1R, ALK F1196M were amplified respectively by PCR, and were respectively inserted into MSCV-Puro vector (Clontech) with N-terminal TEL fragments and/or NPM fragments and/or TPR fragments; the resultants were stably transfected into mouse BaF3 cells by the means of retrovirus, and the IL-3 growth factors were removed, and eventually the ALK, ALK F1174L, EGFR, EGFR T790M, EGFR delE746_A750, EGFR L858, EGFR T790M/L858R, INSR, IGF1R, EML4-ALK, JAK3, CSF1R, ALK F1196M-transferred protein dependent cell lines were obtained.” left out
as §2

BaF3-EML4-ALK = assay: Cell growth (Cell Titer-Glo viability), BaF3-EML4-ALK; type: cell-based; conditions: Mus musculus, Ba/F3 EML4-ALK; BaF3-EML4-ALK (stably expressing EML4-ALK protein), 72 hrs
Excerpt: as §1, §2

BaF3-TEL-JAK3 = assay: Cell growth (Cell Titer-Glo viability), BaF3-TEL-JAK3; type: cell-based; conditions: Mus musculus; BaF3-TEL-JAK3 (stably expressing JAK3 kinase protein), 72 hrs
Excerpt: as §1, §2

A431 = assay: Growth of cancer cells (Cell Titer-Glo viability), A431; type: cell-based; conditions: Homo sapiens, A-431; A431 (wild-type EGFR), 72 hrs; read-out: GI50
Excerpt: as §1, §2

CHO = assay: Cell growth (Cell Titer-Glo viability), CHO; type: cell-based, Chinese hamster; conditions: Cricetulus griseus; CHO Chinese hamster ovary cell, 72 hrs; read-out: GI50
Excerpt: as §1, §2

CHL = assay: Cell growth (Cell Titer-Glo viability), CHL; type: cell-based, Chinese hamster; conditions: Cricetulus griseus; CHL Chinese hamster lung cell, 72 hrs; read-out: GI50
Excerpt: as §1, §2

NCI-H460 = assay: Growth of cancer cells (Cell Titer-Glo viability), NCI-H460; type: cell-based; conditions: Homo sapiens; NCI-H460 (wild-type EGFR), 72 hrs
Excerpt: as §1, §2

NCI-H2122 = assay: Growth of cancer cells (Cell Titer-Glo viability), NCI-H2122; type: cell-based; conditions: Homo sapiens; NCI-H2122 (wild-type EGFR), 72 hrs
Excerpt: as §1, §2

NCI-H3255 = assay: Growth of cancer cells (Cell Titer-Glo viability), NCI-H3255; type: cell-based; conditions: Homo sapiens; NCI-H3255 (EGFR L858R mutant), 72 hrs
Excerpt: as §1, §2

HCC4006 = assay: Growth of cancer cells (Cell Titer-Glo viability), HCC4006; type: cell-based; conditions: Homo sapiens; HCC4006 (mutant EGFR del19), 72 hrs
Excerpt: as §1, §2

NCI-H2228 = assay: Growth of cancer cells (Cell Titer-Glo viability), NCI-H2228; type: cell-based; conditions: Homo sapiens; NCI-H2228 (wild-type ALK), 72 hrs
Excerpt: as §1, §2

BaF3-ALK-F1174L = assay: Cell growth (Cell Titer-Glo viability), BaF3-ALK-F1174L; type: cell-based; conditions: Mus musculus; BaF3-ALK-F1174L (mutant ALK F1174L kinase), 72 hrs
Excerpt: as §1, §2

BaF3-NPM-ALK = assay: Cell growth (Cell Titer-Glo viability), BaF3-NPM-ALK; type: cell-based; conditions: Mus musculus; BaF3-NPM-ALK (stably expressing ALK kinase), 72 hrs
Excerpt: as §1, §2

BaF3-TEL-EGFR = assay: Cell growth (Cell Titer-Glo viability), BaF3-TEL-EGFR; type: cell-based; conditions: Mus musculus; BaF3-TEL-EGFR (stably expressing EGFR kinase), 72 hrs
Excerpt: as §1, §2

BaF3-FL-EGFR-Del19 = assay: Cell growth (Cell Titer-Glo viability), BaF3-FL-EGFR-Del19; type: cell-based; conditions: Mus musculus; BaF3-FL-EGFR-Del19 (EGFR delE746_A750 mutant kinase), 72 hrs
Excerpt: as §1, §2

C=CC(=O)Nc1cc(Nc2ncc(Cl)c(Nc3ccccc3C(=O)NC)n2)c(OC)cc1N1CCN(CC)CC1 [Compound 65]
GI50 (NCI-H1975): 5.1 nM
GI50 (PC-9): 4.2 nM
GI50 (A549): 220 nM
GI50 (HCC827): 13 nM
GI50 (NCI-H3122): 3.5 nM
GI50 (BaF3): 2100 nM
GI50 (BaF3-TEL-ALK): 3.1 nM
GI50 (BaF3-TEL-EGFR-T790M): 30 nM
GI50 (BaF3-TEL-INSR): < 0.3 nM
GI50 (BaF3-TEL-IGF1R): 2 nM
GI50 (BaF3-EML4-ALK): 8.6 nM
GI50 (BaF3-TEL-JAK3): 45 nM

C=CC(=O)Nc1cc(Nc2ncc(C)c(Nc3ccccc3S(=O)(=O)C(C)C)n2)c(OC)cc1N1CCC(N2CCN(C)CC2)CC1 [Compound 24, N-(5-(4-(2-(isopropylsulfonyl)phenylamino)-5-methylpyrimidin-2-ylamino)-4-methoxy-2-(4-(4-methylpiperazin-1-yl)piperidin-1-yl)phenyl)acrylamide]
GI50 (NCI-H1975): 59 nM
GI50 (PC-9): 50 nM
GI50 (A431): 440 nM
GI50 (CHO): 1700 nM
GI50 (CHL): 660 nM
GI50 (NCI-H460): 680 nM
GI50 (NCI-H2122): 230 nM
GI50 (NCI-H3255): 130 nM
GI50 (HCC827): 6.2 nM
GI50 (HCC4006): 14 nM
GI50 (NCI-H3122): < 0.3 nM
GI50 (NCI-H2228): 330 nM
GI50 (BaF3): 1600 nM
GI50 (BaF3-TEL-ALK): < 0.3 nM
GI50 (BaF3-ALK-F1174L): 16 nM
GI50 (BaF3-NPM-ALK): 2 nM
GI50 (BaF3-TEL-EGFR): 810 nM
GI50 (BaF3-TEL-EGFR-T790M): 100 nM
GI50 (BaF3-FL-EGFR-Del19): 2 nM

C=CC(=O)Nc1cc(Nc2ncc(Cl)c(Nc3ccccc3S(=O)(=O)C(C)C)n2)c(OC)cc1N1CCCCC1 [Compound 6, N-(5-(5-chloro-4-(2-(isopropylsulfonyl)phenylamino)pyrimidin-2-ylamino)-4-methoxy-2-(piperidin-1-yl)phenyl) acrylamide]
GI50 (NCI-H1975): 240 nM
GI50 (PC-9): 27 nM
GI50 (A431): 540 nM
GI50 (CHO): 360 nM
GI50 (CHL): > 10000 nM
GI50 (NCI-H2122): 880 nM
GI50 (A549): 330 nM
GI50 (HCC827): 51 nM
GI50 (HCC4006): 260 nM
GI50 (NCI-H3122): 29 nM
GI50 (NCI-H2228): 200 nM
GI50 (BaF3): 340 nM
GI50 (BaF3-TEL-ALK): 15 nM
GI50 (BaF3-ALK-F1174L): 310 nM
GI50 (BaF3-TEL-EGFR-T790M): 18 nM
GI50 (BaF3-FL-EGFR-Del19): 6 nM
